Read-outs that look alike come from different tables or passages of the source.
What was measured:
DLD-1 = test: cells; format: cell-based
[1] = tested on: ECFC/ADSC co-culture cell nuclei number
RKO = test: cells; format: cell-based
[2] = tested on: endothelial tube formation in co-cultures of ECFCs and ADSCs treated with VEGF; test: cells; format: cell-based, human
HeLa cells = test: cells; format: cell-based;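 on Hela CellCycMod PI 4N summarized IC50: value tracks stimulation of 4N DNA content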
HT-29 = test: cells; format: cell-based
SNU-C1 = test: cells; format: cell-based
Colo320 = test: cells; format: cell-based
[3] = tested on: HCT116 cells treated with a GSK3β inhibitor; test: cells; format: cell-based; conditions: for IC50/EC50, GSK3b inh pretreated_Viability ATP HCT116 (assay number 26): GSK3b inh pretreated
HCT116 = test: cells; format: cell-based; conditions: basal
SW480 = test: cells; format: cell-based
[4] = assay number 23, concentration response
[5] = assay number 29, concentration response
[6] = assay number 28, concentration response
[7] = assay number 30, concentration response
[8] = assay number 27, concentration response
[9] = assay number 26, GSK3b inhibitor pretreated, concentration response
[10] = assay number 25, concentration response
[11] = assay number 24, concentration response

SMILES	IC50/EC50, Basal_Viability ATP DLD-1 (assay number 23) (DLD-1; basal) [µM]	IC50/EC50, VEGF_ADSC\ECFC Angio Hoechst NucArea (assay number 3) [1] [µM]	IC50/EC50, Basal_Viability ATP RKO (assay number 29) (RKO; basal) [µM]	IC50/EC50, VEGF_ADSC\ECFC Angio CD31 TubeArea (assay number 2) [2] [µM]	IC50/EC50, Hela CellCycMod PI 2N (assay number 14) (HeLa cells; 2N) [µM]	IC50/EC50, Hela CellCycMod PI 4N (assay number 16) (HeLa cells; 4N) [µM]	IC50/EC50, Hela CellCycMod PI Cell Number (assay number 18) (HeLa cells) [µM]	IC50/EC50, Hela CellCycMod PI MI (assay number 17) (HeLa cells; MI) [µM]	IC50/EC50, Hela CellCycMod PI S Phase (assay number 15) (HeLa cells) [µM]	IC50/EC50, Basal_Viability ATP HT-29 (assay number 28) (HT-29; basal) [µM]	VEGF_ADSC\ECFC Angio Hoechst NucArea IC50/EC50 [1] [µM]	VEGF_ADSC\ECFC Angio CD31 TubeArea IC50/EC50 [2] [µM]	Basal_Viability ATP DLD-1 IC50/EC50 (DLD-1; [4]) [µM]	Basal_Viability ATP RKO IC50/EC50 (RKO; [5]) [µM]	Basal_Viability ATP HT-29 IC50/EC50 (HT-29; [6]) [µM]	Basal_Viability ATP SNU-C1 IC50/EC50 (SNU-C1; [7]) [µM]	Basal_Viability ATP Colo 320 IC50/EC50 (Colo320; [8]) [µM]	GSK3b inh pretreated_Viability ATP HCT116 IC50/EC50 [3, 9] [µM]	Basal_Viability ATP HCT116 IC50/EC50 (HCT116; [10]) [µM]	Basal_Viability ATP SW480 IC50/EC50 (SW480; [11]) [µM]	further results
Cc1cc(N)c2ccccc2[n+]1CCCCCCCCCC[n+]1c(C)cc(N)c2ccccc21 [NCGC00015339-07]	5.7172	> 10	2.4541	> 10	> 10	> 10	> 10	> 10	> 10	> 20											IC50/EC50, Basal_Viability ATP SNU-C1 (assay number 30) (SNU-C1; basal): 1.2926 µM; IC50/EC50, Basal_Viability ATP Colo 320 (assay number 27) (Colo320; basal): 15.8701 µM; IC50/EC50, GSK3b inh pretreated_Viability ATP HCT116 (assay number 26) [3]: > 20 µM; IC50/EC50, Basal_Viability ATP HCT116 (assay number 25) (HCT116): > 20 µM; IC50/EC50, Basal_Viability ATP SW480 (assay number 24) (SW480; basal): 3.8338 µM
O=C1C2CC=CCC2C(=O)N1SC(Cl)(Cl)Cl (centres unmarked) [NCGC00091034-10]																					IC50 (DLD-1; assay number 23, basal, read-out: Basal_Viability ATP DLD-1 summarized IC50): 0.348 µM; IC50 ([1]; read-out: VEGF_ADSC\ECFC Angio Hoechst NucArea summarized IC50): > 10 µM; IC50 (RKO; assay number 29, basal, read-out: Basal_Viability ATP RKO summarized IC50): 0.402 µM; IC50 ([2]; read-out: VEGF_ADSC\ECFC Angio CD31 TubeArea summarized IC50): > 10 µM; IC50 (HeLa cells; assay number 14, 2N, read-out: Hela CellCycMod PI 2N summarized IC50): > 10 µM; IC50 (HeLa cells; assay number 15, S phase, read-out: Hela CellCycMod PI S Phase summarized IC50): > 10 µM; IC50 (HeLa cells; assay number 16, 4N, read-out: Hela CellCycMod PI 4N summarized IC50): > 10 µM; IC50 (HeLa cells; assay number 17, MI, read-out: Hela CellCycMod PI MI summarized IC50): 6.14 µM; IC50 (HeLa cells; assay number 18, cell number, read-out: Hela CellCycMod PI Cell Number summarized IC50): 1.79 µM; IC50 (HT-29; assay number 28, basal, read-out: Basal_Viability ATP HT-29 summarized IC50): 0.5 µM; IC50 (SNU-C1; assay number 30, basal, read-out: Basal_Viability ATP SNU-C1 summarized IC50): 0.903 µM; IC50 (Colo320; assay number 27, basal, read-out: Basal_Viability ATP Colo 320 summarized IC50): 0.306 µM; IC50 ([3]; assay number 26, GSK3b inhibitor pretreated, read-out: GSK3b inh pretreated_Viability ATP HCT116 summarized IC50): 2.21 µM; IC50 (HCT116; assay number 25, read-out: Basal_Viability ATP HCT116 summarized IC50): 1.76 µM; IC50 (SW480; assay number 24, basal, read-out: Basal_Viability ATP SW480 summarized IC50): 0.0788 µM
OC[C@H]1O[C@@H](n2cnc3c(=S)nc[nH]c32)[C@H](O)[C@@H]1O [NCGC00096122-05]	0.06302	> 10	0.01437	1.4206	> 10	> 10	> 10	> 10	> 10	0.1181											IC50/EC50, Basal_Viability ATP SNU-C1 (assay number 30) (SNU-C1; basal): 2.185 µM; IC50/EC50, Basal_Viability ATP Colo 320 (assay number 27) (Colo320; basal): 1.064 µM; IC50/EC50, GSK3b inh pretreated_Viability ATP HCT116 (assay number 26) [3]: 0.5044 µM; IC50/EC50, Basal_Viability ATP HCT116 (assay number 25) (HCT116): 0.02858 µM; IC50/EC50, Basal_Viability ATP SW480 (assay number 24) (SW480; basal): 0.02867 µM
O=C(Nc1ccc(Br)cc1)c1cc(Br)cc(Br)c1O [NCGC00159476-09]	0.001	> 10	0.003	1.8138	> 10	> 10	> 10	> 10	> 10	0.001											IC50/EC50, Basal_Viability ATP SNU-C1 (assay number 30) (SNU-C1; basal): 0.001 µM; IC50/EC50, Basal_Viability ATP Colo 320 (assay number 27) (Colo320; basal): 0.003 µM; IC50/EC50, GSK3b inh pretreated_Viability ATP HCT116 (assay number 26) [3]: 0.001 µM; IC50/EC50, Basal_Viability ATP HCT116 (assay number 25) (HCT116): 0.003 µM; IC50/EC50, Basal_Viability ATP SW480 (assay number 24) (SW480; basal): 0.001 µM
CCCCC[C@@H](O)CC[C@H]1[C@@H]2Cc3cccc(OCC(=O)O)c3C[C@@H]2C[C@@H]1O [NCGC00319020-01]											> 10	> 10									Basal_Viability ATP DLD-1 IC50/EC50 (DLD-1; assay number 23, basal): > 20 µM; Basal_Viability ATP RKO IC50/EC50 (RKO; assay number 29, basal): > 20 µM; Basal_Viability ATP HT-29 IC50/EC50 (HT-29; assay number 28, basal): > 20 µM; Basal_Viability ATP SNU-C1 IC50/EC50 (SNU-C1; assay number 30, basal): > 20 µM; Basal_Viability ATP Colo 320 IC50/EC50 (Colo320; assay number 27, basal): > 20 µM; GSK3b inh pretreated_Viability ATP HCT116 IC50/EC50 ([3]; assay number 26, GSK3b inhibitor pretreated): > 20 µM; Basal_Viability ATP HCT116 IC50/EC50 (HCT116; assay number 25): > 20 µM; Basal_Viability ATP SW480 IC50/EC50 (SW480; assay number 24, basal): > 20 µM
CC=CC1C(C(=O)OCc2c(F)c(F)c(COC)c(F)c2F)C1(C)C (centres unmarked) [NCGC00319021-01]											> 10	> 10	> 20	> 20	> 20	> 20	> 20	> 20	> 20	> 20	
COC(=O)CCCCC(CCSS/C(CCO)=C(\C)N(C=O)Cc1cnc(C)nc1N)SC(C)=O (centres unmarked) [NCGC00319022-01]											> 10	> 10	> 20	> 20	> 20	> 20	> 20	> 20	> 20	> 20	
C=CC(C)(O)CCC=C(C)CCC=C(C)C (centres unmarked) [NCGC00344526-01]											> 10	> 10	> 20	> 20	> 20	> 20	10.2751	> 20	> 20	> 20	
CC1(C)[C@H](C=C(Cl)Cl)[C@@H]1C(=O)OCc1c(F)c(F)cc(F)c1F [NCGC00344542-01]											> 10	> 10	> 20	> 20	> 20	> 20	> 20	> 20	> 20	> 20	

Reference: publication PMC4503722, “Novel Phenotypic Outcomes Identified for a Public Collection of Approved Drugs from a Publicly Accessible Panel of Assays” (PLoS ONE, 2015)
